From patent publication US12497610B2, “Functional genomics using CRISPR-CAS systems for saturating mutagenesis of non-coding elements, compositions, methods, libraries and applications thereof” (THE BROAD INSTITUTE, INC., priority 2015, dated 2025)

Tested on: human BCL11A erythroid enhancer
Experiment: Tiled pooled CRISPR-Cas9 screen for in situ functional mapping of the human BCL11A erythroid enhancer (HbF-high/HbF-low sort, sgRNA deep sequencing)
Format: cell-based
Conditions: for Enrichment Score: HbF enrichment, human library NGG and NGG RC sgRNAs filtered for enrichment score >0.259; for Dropout Score: human library sgRNAs that produced HbF enrichment over 0.259
Description: Every 20-mer sequence upstream of an NGG or NAG PAM sequence on the sense or anti-sense strand was identified for both the human and mouse orthologous +55, +58, and +62 DNase hypersensitive site (DHS) as well as BCL11A/BCL11a exon 2. Relative to the human hg 19 reference genome, a reference was used with the following substitutions to approximate a common low-HbF associated haplotype: rs1427407-G, rs1896293-T, rs6706648-T, rs6738440-G, rs7606173-C. Each of the sgRNA oligos were synthesized as previously described (37,41,64) and cloned using a Gibson Assembly master mix (New England Biolabs) into lentiGuide-Puro (Addgene plasmid ID 52963) BsmBI digested, PCR purified, and dephosphorylated. Gibson Assembly products were transformed to electrocompetent E. cloni cells (Lucigen). Sufficient colonies were isolated to ensure 90X library coverage for both human and mouse libraries. Plasmid libraries were deep sequenced (described below) to confirm representation.
Tiled Pooled CRISPR-Cas9 Screen for In Situ Functional Mapping the Human BCL11A Erythroid Enhancer.
HUDEP clone 2 (HUDEP-2) was utilized as previously described by from Nakamura and colleagues (49). HUDEP-2 cells were expanded in StemSpan SFEM (Stem Cell Technologies) supplemented with 10^−6 M dexamethasone (Sigma), 100 ng/mL human stem cell factor (SCF) (R&D), 3 IU/mL erythropoietin (Amgen), 1% L-glutamine (Life Technologies), and 2% penicillin/streptomycin (Life Technologies). 1 μg/mL doxycycline (Sigma) was included in the culture to induce expression of the human papilloma virus type 16 E6/E7 genes (49). HUDEP-2 cells were differentiated in Iscove's Modified Dulbecco's Medium (IMDM) supplemented with 330 μg/mL halo-transferrin (Sigma), 10 μg/mL recombinant human insulin (Sigma), 2 IU/mL heparin (Sigma), 5% human solvent detergent pooled plasma AB (Rhode Island Blood Center), 3 IU/mL erythropoietin (Amgen), 100 ng/mL human stem cell factor (SCF) (R&D), 1 μg/mL doxycycline (Sigma), 1% L-glutamine (Life Technologies), and 2% penicillin/streptomycin (Life Technologies).
HUDEP-2 cells with stable Cas9 expression were transduced at low multiplicity with the human sgRNA library lentivirus pool while in expansion medium. […] Cell numbers were maintained throughout the experiment at levels adequate to exceed 1000× representation of the library. 10 μg/mL blasticidin (Sigma) and 1 μg/mL puromycin (Sigma) were added 24 hours after transduction to select for lentiviral library integrants in cells with Cas9. Cells were cultured in expansion media for one week followed by differentiation media for an additional week.
Intracellular staining was performed by fixing cells with 0.05% glutaraldehyde (grade II) (Sigma) for 10 minutes at room temperature. Cells were centrifuged for 5 minutes at 350 g and then resuspended in 0.1% Triton-X100 (Life Technologies) for 5 minutes at room temperature for permeabilization. Triton X-100 was diluted with phosphate buffered saline (PBS) and then centrifuged at 350 g for 15 minutes. Cells were stained with anti-human antibodies for HbF (clone HbF-1 with FITC or APC conjugation; Life Technologies) and B-hemoglobin antibody (clone 37-8 with PerCP-Cy5 or PE conjugation; Santa Cruz) for 20 minutes in the dark. Cells were washed to remove unbound antibody prior to FACS analysis. 0.2 μg HbF and 2 μg of HbA CB-hemoglobin) antibodies were used per 5 million cells. Control cells exposed to a nontargeting sgRNA sample and BCL11A exon 2 were used as negative and positive controls respectively to establish flow cytometry conditions. Populations of cells with the top and bottom 10% of expression of HbF were sorted by FACS.
After sorting the HbF-high and HbF-low pools, library preparation and deep sequencing was performed as previously described (37). Briefly, genomic DNA was extracted using the Qiagen Blood and Tissue kit. […]

Substance | Enrichment Score | Dropout Score
BCL_01665_H_D58 (guide TGTAACTAATAAATACCAGGNGGRC; listed as DNA, chemistry not given here) | 0.4418 | −0.6516
BCL_00233_H_D62 (guide CAGGAGGATCACCTGAGGTCNGG; listed as DNA, chemistry not given here) | 0.6113 | −9.202
BCL_00051_H_D55 (guide GGAGGTGTGGAGGGGATAACNGG; listed as DNA, chemistry not given here) | 0.3141 | −0.1655
BCL_01495_H_D55 (guide AGGGAGAAATGAGACAAAAGNGGRC; listed as DNA, chemistry not given here) | 0.2643 | −0.4932
BCL_01669_H_D58 (guide CCAGCTGAAGAAAGAACATTNGGRC; listed as DNA, chemistry not given here) | 0.3196 | −0.00075
BCL_00012_H_D55 (guide AAGTGAGCCAGGTGATAGAANGG; listed as DNA, chemistry not given here) | 0.3511 | −0.01983
BCL_00256_H_exon2 (guide GTGCCAGATGAACTTCCCATNGG; listed as DNA, chemistry not given here) | 1.89 | −1.764
BCL_00093_H_D55 (guide TCCCTTCCTAGAATTGGCCTNGG; listed as DNA, chemistry not given here) | 0.5283 | −0.5616
BCL_00096_H_D55 (guide AGCAAATAGGCTTAGTGTGCNGG; listed as DNA, chemistry not given here) | 0.3521 | −0.2396
BCL_01998_H_exon2 (guide TTTCATCTCGATTGGTGAAGNGGRC; listed as DNA, chemistry not given here) | 0.3489 | −0.1426
BCL_00089_H_D55 (guide TCCTGGTACCAGGAAGGCAANGG; listed as DNA, chemistry not given here) | 0.3559 | −0.7862
BCL_02009_H_exon2 (guide TCCCCTTCTGGAGCTCCCAANGGRC; listed as DNA, chemistry not given here) | 2.108 | −1.693
BCL_02002_H_exon2 (guide AAAATAAGAATGTCCCCCAANGGRC; listed as DNA, chemistry not given here) | 0.505 | −0.4259
BCL_00264_H_exon2 (guide AAAAGCATCCAATCCCGTGGNGG; listed as DNA, chemistry not given here) | 0.5578 | −1.376
BCL_00261_H_exon2 (guide CACAAACGGAAACAATGCAANGG; listed as DNA, chemistry not given here) | 3.329 | −2.543
BCL_00065_H_D55 (guide GCCAACAGTGATAACCAGCANGG; listed as DNA, chemistry not given here) | 0.4886 | −0.5415
BCL_00183_H_D58 (guide AAGAGGCCCCCCTGGGCAAANGG; listed as DNA, chemistry not given here) | 0.7853 | −0.5913

Substance | Enrichment Score | Dropout Score
BCL_01790_H_D62 (guide TTGCCCGGGCTGGAATGCAANGGRC; listed as DNA, chemistry not given here) | 0.4673 | −8.123
BCL_00085_H_D55 (guide GGGTGTGCCCTGAGAAGGTGNGG; listed as DNA, chemistry not given here) | 0.5011 | −0.6263
BCL_01684_H_D58 (guide ACAACCTCCTTGTTTACAGANGGRC; listed as DNA, chemistry not given here) | 0.4945 | 0.3674
BCL_00229_H_D62 (guide CCCAGCACTTTGGGAGGCCGNGG; listed as DNA, chemistry not given here) | 0.6113 | −8.717
BCL_00135_H_D58 (guide CCATCTCCCTAATCTCCAATNGG; listed as DNA, chemistry not given here) | 0.2985 | −0.04502
BCL_01449_H_D55 (guide GTGCTTGGTCGGCACTGATANGGRC; listed as DNA, chemistry not given here) | 1.134 | −0.6101
BCL_00062_H_D55 (guide AGCAGCCCTGGGCACAGAAGNGG; listed as DNA, chemistry not given here) | 0.3251 | −0.6401
BCL_01454_H_D55 (guide GGGTCGCGGTAGGGAGTTGTNGGRC; listed as DNA, chemistry not given here) | 0.3579 | −0.5577
BCL_02015_H_exon2 (guide AAGAATGGCTTCAAGAGGCT; chemistry not given here) | 1.064 | −1.349
BCL_01825_H_D62 (guide ATTTGCTCTTCTCCAGGGTGNGGRC; listed as DNA, chemistry not given here) | 0.2818 | −0.3945
BCL_01438_H_D55 (guide TACCAGGATGATGCAATGCTNGGRC; listed as DNA, chemistry not given here) | 0.9129 | −0.4122
BCL_01992_H_exon2 (guide GACCTGGATGCCAACCTCCANGGRC; listed as DNA, chemistry not given here) | 1.234 | −0.6955
BCL_01448_H_D55 (guide TGTGCTTGGTCGGCACTGATNGGRC; listed as DNA, chemistry not given here) | 1.348 | −0.4953
BCL_02003_H_exon2 (guide AAATAAGAATGTCCCCCAATNGGRC; listed as DNA, chemistry not given here) | 1.085 | −0.09695
BCL_00130_H_D58 (guide GGAGTATGGGGAGAGAAGAGNGG; listed as DNA, chemistry not given here) | 0.3752 | −2.212
BCL_01617_H_D58 (guide CTAACAGTTGCTTTTATCACNGGRC; listed as DNA, chemistry not given here) | 2.495 | −0.7193
